# Data as given in patent US11548893B2 (priority 2017, dated 2023).
# Read-outs that look alike come from different tables or passages of the source.
# Legend:
# [1] = human, in vivo; cited from earlier work
# [2] = system: native EBOV virus; settings: read-out: published EC50 against native EBOV virus; cited from earlier work
# [3] = in vitro; settings: African green monkey
# [4] = in vivo, po, 150 mg/kg; cited from earlier work
# [5] = system: Ebola virus infection; settings: human, in vivo; cited from earlier work
# [6] = system: EBOV (Mayinga); experiment: microbe, parasite or virus in culture; assay type: cell-based, Ebola virus; settings: for EC50: Zaire ebolavirus, Vero
# [7] = system: BDBV (mucin-deleted glycoprotein, VSV pseudotype); experiment: microbe, parasite or virus in culture; assay type: cell-based, Bundibugyo ebolavirus; settings: Vesicular stomatitis virus, Vero, 24 h, read-out: EC50 Pseudotype Assays BDBV
# [8] = system: Ebola Zaire
# [9] = system: EBOV_FL: full-length Ebola Zaire GP (VSV pseudotype); experiment: microbe, parasite or virus in culture; assay type: cell-based, Zaire ebolavirus; settings: Zaire ebolavirus, Vero, 24 h, read-out: EC50 Pseudotype Assays EBOV_FL
# [10] = system: Ebola Zaire; experiment: microbe, parasite or virus in culture; settings: Zaire ebolavirus, read-out: Ebola Zaire EC50
# [11] = system: MARV (full-length glycoprotein, VSV pseudotype); experiment: microbe, parasite or virus in culture; assay type: cell-based, Marburg marburgvirus; settings: Vesicular stomatitis virus, Vero, 24 h, read-out: EC50 Pseudotype Assays MARV
# [12] = system: SUDV (glycoprotein, VSV pseudotype); experiment: microbe, parasite or virus in culture; assay type: cell-based, Sudan ebolavirus; settings: Vesicular stomatitis virus, Vero, 24 h, read-out: EC50 Pseudotype Assays SUDV
# [13] = in vitro; settings: African green monkey, Cytotox CC50
# [14] = system: EBOV (mucin-deleted glycoprotein, VSV pseudotype); experiment: microbe, parasite or virus in culture; assay type: cell-based, Zaire ebolavirus; settings: Zaire ebolavirus, Vero, 24 h, read-out: EC50 Pseudotype Assays EBOV
# [15] = mouse, in vivo
# [16] = system: VSV (native full-length glycoprotein); experiment: microbe, parasite or virus in culture; assay type: cell-based; settings: Vesicular stomatitis virus, Vero, read-out: EC50 Pseudotype Assays VSV
# [17] = in vivo; settings: male, CD-1, mouse
# [18] = molecular target: Cyp-p450 1A2 (Homo sapiens, UniProt P05177)
# Cyp-p450 1A2, sequence (P05177 whole entry): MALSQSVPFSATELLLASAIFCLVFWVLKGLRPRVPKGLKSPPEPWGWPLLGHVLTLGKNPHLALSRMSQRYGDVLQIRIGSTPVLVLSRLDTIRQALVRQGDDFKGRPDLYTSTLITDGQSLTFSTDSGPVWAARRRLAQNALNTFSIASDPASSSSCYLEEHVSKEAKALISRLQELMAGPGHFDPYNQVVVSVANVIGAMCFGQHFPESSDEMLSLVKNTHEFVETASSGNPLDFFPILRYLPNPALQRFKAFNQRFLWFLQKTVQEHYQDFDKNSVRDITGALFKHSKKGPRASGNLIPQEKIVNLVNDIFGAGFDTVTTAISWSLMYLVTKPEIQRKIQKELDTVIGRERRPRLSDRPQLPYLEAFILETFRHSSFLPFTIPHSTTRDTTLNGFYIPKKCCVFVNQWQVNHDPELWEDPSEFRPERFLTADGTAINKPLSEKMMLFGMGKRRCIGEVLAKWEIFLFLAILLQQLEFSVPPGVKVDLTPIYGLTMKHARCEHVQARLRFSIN
# [19] = molecular target: Cyp-p450 2C9 (Homo sapiens, UniProt P11712)
# Cyp-p450 2C9, sequence (P11712 whole entry): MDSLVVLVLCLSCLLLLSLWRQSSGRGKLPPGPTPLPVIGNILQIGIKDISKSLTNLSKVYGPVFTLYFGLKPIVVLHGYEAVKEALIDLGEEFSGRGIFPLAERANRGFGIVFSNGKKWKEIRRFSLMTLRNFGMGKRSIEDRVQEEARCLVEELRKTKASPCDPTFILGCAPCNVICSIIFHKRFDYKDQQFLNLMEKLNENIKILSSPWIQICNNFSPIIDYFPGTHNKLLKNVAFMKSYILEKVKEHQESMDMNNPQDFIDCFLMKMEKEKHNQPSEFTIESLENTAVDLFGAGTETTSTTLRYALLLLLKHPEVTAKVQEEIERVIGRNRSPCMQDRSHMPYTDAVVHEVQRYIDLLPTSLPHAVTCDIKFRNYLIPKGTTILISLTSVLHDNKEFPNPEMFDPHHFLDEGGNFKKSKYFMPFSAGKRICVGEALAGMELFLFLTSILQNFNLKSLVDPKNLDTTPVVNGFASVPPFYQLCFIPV
# [20] = molecular target: P-gp (Homo sapiens, UniProt P08183)
# P-gp, sequence (P08183 whole entry): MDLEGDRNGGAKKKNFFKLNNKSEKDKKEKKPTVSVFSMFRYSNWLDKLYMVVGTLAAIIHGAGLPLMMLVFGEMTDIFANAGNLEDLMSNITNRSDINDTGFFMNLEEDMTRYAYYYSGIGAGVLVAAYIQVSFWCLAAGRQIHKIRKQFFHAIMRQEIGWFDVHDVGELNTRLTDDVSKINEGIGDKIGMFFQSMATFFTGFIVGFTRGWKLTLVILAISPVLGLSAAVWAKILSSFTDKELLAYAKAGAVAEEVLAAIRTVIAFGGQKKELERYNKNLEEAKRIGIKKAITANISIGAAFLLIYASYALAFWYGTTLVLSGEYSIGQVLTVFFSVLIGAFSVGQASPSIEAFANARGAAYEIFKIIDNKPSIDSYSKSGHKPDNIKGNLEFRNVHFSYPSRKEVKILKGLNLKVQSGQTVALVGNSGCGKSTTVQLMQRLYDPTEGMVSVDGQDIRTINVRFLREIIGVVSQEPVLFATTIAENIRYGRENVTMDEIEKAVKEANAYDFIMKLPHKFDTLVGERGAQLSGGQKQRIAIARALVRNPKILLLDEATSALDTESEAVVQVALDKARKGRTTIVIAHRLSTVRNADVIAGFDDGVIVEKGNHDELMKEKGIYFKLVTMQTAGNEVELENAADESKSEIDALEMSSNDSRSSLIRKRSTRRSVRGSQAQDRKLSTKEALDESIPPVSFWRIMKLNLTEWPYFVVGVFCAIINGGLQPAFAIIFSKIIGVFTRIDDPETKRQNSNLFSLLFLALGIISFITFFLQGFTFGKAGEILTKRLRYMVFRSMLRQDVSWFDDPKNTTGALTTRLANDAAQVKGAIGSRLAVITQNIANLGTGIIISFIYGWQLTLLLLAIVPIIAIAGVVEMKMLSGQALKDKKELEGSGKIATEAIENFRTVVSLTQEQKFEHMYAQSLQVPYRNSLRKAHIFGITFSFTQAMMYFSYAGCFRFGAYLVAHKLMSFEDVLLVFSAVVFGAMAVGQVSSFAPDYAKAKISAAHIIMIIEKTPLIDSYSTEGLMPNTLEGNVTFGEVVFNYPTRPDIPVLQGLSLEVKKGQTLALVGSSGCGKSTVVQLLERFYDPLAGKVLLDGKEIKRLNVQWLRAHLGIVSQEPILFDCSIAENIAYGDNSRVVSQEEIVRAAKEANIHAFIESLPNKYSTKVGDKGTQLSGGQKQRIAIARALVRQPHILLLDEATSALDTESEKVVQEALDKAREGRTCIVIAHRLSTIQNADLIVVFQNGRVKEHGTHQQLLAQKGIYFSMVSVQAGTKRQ
# [21] = molecular target: hERG ion channel (Homo sapiens, UniProt Q12809); experiment: biochemical
# [22] = pH 7
# [23] = molecular target: Cyp-p450 2C19 (Homo sapiens, UniProt P33261)
# Cyp-p450 2C19, sequence (P33261 whole entry): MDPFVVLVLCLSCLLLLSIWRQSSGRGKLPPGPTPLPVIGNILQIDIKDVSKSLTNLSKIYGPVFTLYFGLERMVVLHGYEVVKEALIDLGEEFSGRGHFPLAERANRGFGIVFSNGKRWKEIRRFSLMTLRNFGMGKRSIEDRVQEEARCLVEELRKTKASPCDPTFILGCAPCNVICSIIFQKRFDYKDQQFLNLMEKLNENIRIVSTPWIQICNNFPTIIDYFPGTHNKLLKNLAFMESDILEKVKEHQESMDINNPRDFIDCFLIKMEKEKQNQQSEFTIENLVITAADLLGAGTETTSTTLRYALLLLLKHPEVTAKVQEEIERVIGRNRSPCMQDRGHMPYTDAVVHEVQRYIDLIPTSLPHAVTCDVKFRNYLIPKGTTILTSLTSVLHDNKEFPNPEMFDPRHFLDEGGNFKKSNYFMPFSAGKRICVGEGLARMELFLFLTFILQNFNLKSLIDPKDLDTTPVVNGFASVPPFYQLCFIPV
# [24] = in vitro; settings: human
# [25] = molecular target: Cyp-p450 2B6 (Homo sapiens, UniProt P20813)
# Cyp-p450 2B6, sequence (P20813 whole entry): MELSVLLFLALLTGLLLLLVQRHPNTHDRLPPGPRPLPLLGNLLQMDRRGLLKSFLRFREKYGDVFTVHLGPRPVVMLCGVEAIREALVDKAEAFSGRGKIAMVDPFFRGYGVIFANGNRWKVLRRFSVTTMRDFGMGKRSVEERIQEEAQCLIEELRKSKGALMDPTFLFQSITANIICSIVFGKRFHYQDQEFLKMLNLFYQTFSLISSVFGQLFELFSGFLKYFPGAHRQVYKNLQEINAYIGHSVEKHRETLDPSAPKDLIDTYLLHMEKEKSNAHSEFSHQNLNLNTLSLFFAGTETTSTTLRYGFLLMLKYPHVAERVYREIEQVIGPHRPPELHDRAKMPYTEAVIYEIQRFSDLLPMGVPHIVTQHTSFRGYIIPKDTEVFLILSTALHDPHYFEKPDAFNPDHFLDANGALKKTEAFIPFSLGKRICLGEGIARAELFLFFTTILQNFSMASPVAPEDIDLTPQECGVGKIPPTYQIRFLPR
# [26] = molecular target: Cyp-p450 3A4 (Homo sapiens, UniProt P08684)
# Cyp-p450 3A4, sequence (P08684 whole entry): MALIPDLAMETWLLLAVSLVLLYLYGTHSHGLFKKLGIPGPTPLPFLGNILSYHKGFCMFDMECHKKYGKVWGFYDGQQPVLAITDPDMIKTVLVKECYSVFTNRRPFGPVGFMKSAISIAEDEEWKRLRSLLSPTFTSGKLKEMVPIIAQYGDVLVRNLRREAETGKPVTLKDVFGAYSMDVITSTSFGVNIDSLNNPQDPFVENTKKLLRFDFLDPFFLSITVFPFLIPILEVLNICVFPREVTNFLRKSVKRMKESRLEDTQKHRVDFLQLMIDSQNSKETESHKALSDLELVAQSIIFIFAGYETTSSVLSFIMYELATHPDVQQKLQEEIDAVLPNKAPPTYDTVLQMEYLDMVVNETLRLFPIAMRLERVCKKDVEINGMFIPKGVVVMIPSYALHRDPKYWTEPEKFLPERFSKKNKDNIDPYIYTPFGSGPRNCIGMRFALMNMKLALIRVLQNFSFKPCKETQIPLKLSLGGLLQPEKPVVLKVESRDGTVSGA
# [27] = physchem; settings: pH 7, kinetic from dmso stock
# [28] = in vitro; settings: human, Caco-2
# [29] = molecular target: Cyp-p450 2D6 (Homo sapiens, UniProt P10635)
# Cyp-p450 2D6, sequence (P10635 whole entry): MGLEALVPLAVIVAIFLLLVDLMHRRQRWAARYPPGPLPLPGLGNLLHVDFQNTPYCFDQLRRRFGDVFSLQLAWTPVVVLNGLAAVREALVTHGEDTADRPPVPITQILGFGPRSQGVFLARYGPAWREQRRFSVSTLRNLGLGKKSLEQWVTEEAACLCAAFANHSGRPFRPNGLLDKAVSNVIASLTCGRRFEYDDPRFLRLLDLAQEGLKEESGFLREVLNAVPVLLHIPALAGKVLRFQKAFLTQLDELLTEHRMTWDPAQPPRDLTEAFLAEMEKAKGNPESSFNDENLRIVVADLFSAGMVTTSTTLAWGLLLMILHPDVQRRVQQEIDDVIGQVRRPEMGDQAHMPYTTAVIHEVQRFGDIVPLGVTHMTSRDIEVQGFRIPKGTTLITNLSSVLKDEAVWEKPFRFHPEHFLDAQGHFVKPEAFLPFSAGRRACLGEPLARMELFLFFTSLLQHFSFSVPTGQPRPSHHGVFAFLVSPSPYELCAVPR
# [30] = in vitro; settings: mouse
# [31] = microsomes, 1 h
# [32] = system: Sudan Gulu; experiment: organism not typed; settings: HeLa, read-out: Sudan Gulu EC50
# [33] = system: Ebola Zaire; experiment: microbe, parasite or virus in culture; settings: Zaire ebolavirus, read-out: Ebola Zaire EC90
# [34] = microsomes, 1 h; remark: listed apart in the source
# [35] = microsomes, 1 h; remark: listed apart in the source
# [36] = system: Ebola Zaire; remark: listed apart in the source
# [37] = system: Sudan Gulu; experiment: organism not typed; settings: read-out: Sudan Gulu EC50
# [38] = molecular target: Cyp-p450 2C8 (Homo sapiens, UniProt P10632)
# Cyp-p450 2C8, sequence (P10632 whole entry): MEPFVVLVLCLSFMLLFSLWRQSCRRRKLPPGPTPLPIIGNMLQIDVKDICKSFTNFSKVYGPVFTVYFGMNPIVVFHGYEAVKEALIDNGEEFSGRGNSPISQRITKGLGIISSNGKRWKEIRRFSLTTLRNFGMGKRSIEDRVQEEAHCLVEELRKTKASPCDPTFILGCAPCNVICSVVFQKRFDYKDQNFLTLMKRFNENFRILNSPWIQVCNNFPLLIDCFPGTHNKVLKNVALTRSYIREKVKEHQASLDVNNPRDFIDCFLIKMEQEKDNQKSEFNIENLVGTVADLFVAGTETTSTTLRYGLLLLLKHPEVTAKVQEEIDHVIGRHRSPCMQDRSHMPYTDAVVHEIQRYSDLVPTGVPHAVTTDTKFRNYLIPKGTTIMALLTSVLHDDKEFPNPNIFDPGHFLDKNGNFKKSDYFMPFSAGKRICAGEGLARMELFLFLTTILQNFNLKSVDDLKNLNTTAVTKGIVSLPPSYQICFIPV
# [39] = system: Ebola Zaire; experiment: microbe, parasite or virus in culture; settings: Zaire ebolavirus, HeLa, read-out: Ebola Zaire EC50
# [40] = microsomes, 1 h; remark: listed apart in the source
# [41] = system: Sudan Gulu; experiment: organism not typed; settings: read-out: Sudan Gulu EC50; remark: listed apart in the source
# [42] = system: Sudan Gulu
# [43] = CYP Inhibition 3A4 (Testosterone)
structure (smiles),measurement,setting,value
"NC(=O)c1nc(F)c[nH]c1=O [favipiravir, reference compound]",half-life in humans,[1],1 to 4 h
same,EC50,[2],67 µM
same,CC50,[3],> 1000 µM
same,half-life,[4],1.8 h
same,drop in viral load,[5],3-4 log
same,SI50 (CC50/EC50),[6],>59
same,EC50,[6],17 µM
CCC12CC3CC(C(=O)N4CCC(N)CC4)(C1)CC(c1ccccc1)(C3)C2 (racemic) [Example A32],EC50,[7],0.09 µM
same,Ebola Zaire SI (CC50/EC50),[8],64
same,EC50,[9],0.065 µM
same,EC50,[10],1.33 µM
same,EC50,[11],7.6 µM
same,EC50,[12],0.215 µM
same,CC50,[13],6 µM
same,EC50,[14],0.042 µM
CC12CC3CC(C(=O)N[C@H]4CC[C@@H](N)CC4)(C1)CC(c1ccccc1)(C3)C2.Cl (mixture of isomers) [Example A2],clearance,[15],less than hepatic blood flow
same,EC50,[7],0.09 µM
same,EC50,[16],> 10 µM
same,Vd,[17],14 L/kg
same,bioavailability,[17],72%
same,half-life,[17]; 10 mg/kg,7 h
same,AUC(0-inf),"[17]; iv, 1 mg/kg",561 ng·h/mL
same,AUC(0-t),"[17]; iv, 1 mg/kg",539 ± 23 ng·h/mL
same,Cmax,"[17]; iv, 1 mg/kg",129 ± 40 ng/mL
same,Tmax,"[17]; iv, 1 mg/kg",0.083 h
same,Vd,"[17]; iv, 1 mg/kg",13.9 L/kg
same,clearance,"[17]; iv, 1 mg/kg",29.7 mL/min/kg
same,half-life,"[17]; iv, 1 mg/kg",5.4 h
same,AUC(0-inf),"[17]; po, 10 mg/kg",4040 ng·h/mL
same,AUC(0-t),"[17]; po, 10 mg/kg",3590 ± 576 ng·h/mL
same,Cmax,"[17]; po, 10 mg/kg",239 ± 46 ng/mL
same,Tmax,"[17]; po, 10 mg/kg",6 h
same,half-life,"[17]; po, 10 mg/kg",7.1 h
same,IC50,[18],> 100 µM
same,IC50,[19],> 100 µM
same,P-gp substrate ID Caco-2 Permeability (+Verapamil) Paap Mean A > B,[20],8.47 10^−6 cm s^−1
same,P-gp substrate ID Caco-2 Permeability (+Verapamil) Paap Mean B > A,[20],7.45 10^−6 cm s^−1
same,IC50,[21],> 10 µM
same,Turbidimetric solubility,[22],>500 µM
same,IC50,[23],> 100 µM
same,EC50,[9],0.024 µM
same,fraction unbound,[24],0.025
same,IC50,[25],> 100 µM
same,IC50,[26]; CYP Inhibition 3A4 (Midazolam),> 100 µM
same,IC50,[26]; [43],28 µM
same,solubility,[27],> 500 µM
same,EC50,[11],3.1 µM
same,EC50,[12],0.27 µM
same,CC50,[3],66 µM
same,CC50,[13],10.1 µM
same,EC50,[14],0.02 µM
same,Papp A→B,[28],3.61 ×10⁻⁶ cm/s
same,Papp B→A,[28],15.6 ×10⁻⁶ cm/s
same,efflux ratio,[28],4.32
same,IC50,[29],> 100 µM
same,SI50 (CC50/EC50),[6],153
same,EC50,[6],0.43 µM
same,fraction unbound,[30],0.014
C[C@]12CC3CC(C(=O)N[C@H]4CC[C@@H](N)CC4)(C1)C[C@@](c1ccccc1)(C3)C2.Cl [Example B2],"Liver Microsome Stability % Remaining after 60 Minutes, Monkey",[31],85%
same,EC50,[7],0.067 µM
same,EC50,[32],0.18 µM
same,IC50,[18],> 100 µM
same,IC50,[19],> 100 µM
same,EC90,[33],0.8 µM
same,P-gp substrate ID Caco-2 Permeability (+Verapamil) Paap Mean A > B,[20],6.19 10^−6 cm s^−1
same,P-gp substrate ID Caco-2 Permeability (+Verapamil) Paap Mean B > A,[20],6.83 10^−6 cm s^−1
same,Turbidimetric solubility,[22],>500 µM
same,IC50,[23],51 µM
same,EC50,[9],0.01 µM
same,"Liver Microsome Stability % Remaining after 60 Minutes, Mouse",[34],71%
same,fraction unbound,[24],0.039
same,IC50,[25],> 100 µM
same,IC50,[26]; CYP Inhibition 3A4 (Midazolam),> 100 µM
same,IC50,[26]; [43],88 µM
same,"Liver Microsome Stability % Remaining after 60 Minutes, Human",[35],100%
same,solubility,[27],> 500 µM
same,EC50,[10],0.24 µM
same,Ebola Zaire SI (CC50/EC90),[36],72.5
same,EC50,[11],6.45 µM
same,EC50,[12],0.277 µM
same,CC50,[3],67.6 µM
same,EC50,[37],1.1 µM
same,CC50,[13],19.1 µM
same,IC50,[38],> 100 µM
same,EC50,[14],0.015 µM
same,Papp A→B,[28],3.07 ×10⁻⁶ cm/s
same,Papp B→A,[28],7.86 ×10⁻⁶ cm/s
same,efflux ratio,[28],2.71
same,EC50,[39],0.44 µM
same,IC50,[29],> 100 µM
same,SI50 (CC50/EC50),[6],282
same,EC50,[6],0.24 µM
same,"Liver Microsome Stability % Remaining after 60 Minutes, Guinea Pig",[40],100%
same,fraction unbound,[30],0.011
C[C@]12CC3CC(C(=O)N4CCC(N)CC4)(C1)C[C@@](c1ccccc1)(C3)C2 [Example B7],"Liver Microsome Stability % Remaining after 60 Minutes, Monkey",[31],53%
same,EC50,[7],0.072 µM
same,EC50,[41],0.36 µM
same,EC50,[32],0.17 µM
same,EC50,[9],0.04 µM
same,"Liver Microsome Stability % Remaining after 60 Minutes, Mouse",[34],77%
same,"Liver Microsome Stability % Remaining after 60 Minutes, Human",[35],86%
same,EC50,[10],0.88 µM
same,EC50,[11],8 µM
same,EC50,[12],0.116 µM
same,CC50,[13],31 µM
same,EC50,[14],0.045 µM
same,EC50,[39],1.9 µM
same,"Liver Microsome Stability % Remaining after 60 Minutes, Guinea Pig",[40],72%
CC1(C)CN(C(=O)C23CC4C[C@@](C)(C2)C[C@](c2ccccc2)(C4)C3)CCC1N (some centres unmarked) [Example B8],"Liver Microsome Stability % Remaining after 60 Minutes, Monkey",[31],30%
same,EC50,[7],0.084 µM
same,EC50,[9],0.05 µM
same,"Liver Microsome Stability % Remaining after 60 Minutes, Mouse",[34],47%
same,"Liver Microsome Stability % Remaining after 60 Minutes, Human",[35],76%
same,EC50,[12],0.058 µM
same,EC50,[37],0.13 µM
same,CC50,[13],12.4 µM
same,EC50,[14],0.012 µM
same,Sudan Gulu SI (CC50/EC50),[42],128
same,"Liver Microsome Stability % Remaining after 60 Minutes, Guinea Pig",[40],56%
